{"source": "patent US20240209028A1", "about": "“CNP COMPOUNDS” (priority 2022, published 2024)", "key": {"[1]": {"assay": "PK after i.v. and s.c. administration to Göttingen minipig", "conditions": "female, Göttingen, minipig, in vivo", "experimental": "The purpose of this study was to investigate pharmacokinetic and pharmacodynamic properties after intravenous (i.v.) and subcutaneous (s.c.) administration to Gottingen Minipig and domestic LYD pig, and to estimate bioavailability after s.c. dosing. Quantitative plasma analysis of CNP and cGMP levels were performed as described in\nAnimals and dosing: The pharmacokinetic and pharmacodynamic studies in Gottingen Minipig or domestic LYD pig were conducted at CRO Minerva Imaging or Novo Nordisk A/S, respectively. CNP compounds were dosed to normal female 1) Gottingen minipigs 6-12 months of age with an average weight of 22 kg or 2) domestic LYD pigs 4-5 months of age with and average weight of 80 kg. At least one week prior to dosing, permanent central venous catheters were implanted for blood sampling and intravenous (i.v.) dosing. For subcutaneous (s.c.) dosing, the pigs were ultrasound scanned and the optimal injection area laterally on the neck marked by a permanent tattoo. An insulin pen (NovoPen Echo or NovoPen 4) and insulin needle (NovoFine 32G/4 mm or NovoTwist 32G/5 mm) were used for accurate deposition of the CNP formulations in the subcutaneous fat tissue with the needle perpendicular to the skin.\nCNP compounds were formulated according to the principles in General Methods of Preparation—Method G and were either A) 8 mM sodium phosphate, 250 mM glycerol, pH 6.5, B) 5 mM sodium acetate, 250 mM glycerol, pH 4.0, C) 5 mM sodium acetate, 240 mM propylene glycol, pH=4.0, D) 8 mM sodium phosphate, 250 mM glycerol, pH 7.5 or E) 20 mM sodium phosphate, 223 mM propylene glycol, pH 6.0.\nIntravenously, the CNP compounds were dosed at 30-60 nmol/kg to Minipig and 15-43 nmol/kg to domestic pig using formulations A-E. Subcutaneously, the CNP compounds were dosed at 55-62 nmol/kg to Minipig and 20-30 nmol/kg to domestic pig using formulations A-D.\nSampling: Blood samples of approximately 1 mL were collected pre dose and up to 14 days post dose into EDTA-coated tubes (8 mM) for cGMP and CNP compound analysis by LC-MS. In few instances, cGMP was only analysed up to 48 hours post dose after intravenous dosing in domestic LYD pig. The blood samples were kept on wet ice for maximum 30 minutes until centrifugation for 10 minutes at 4° C. and minimum 1500G, and the plasma samples were stored at −20° C. until analysis.\nPlasma concentration-time profiles were analyzed by non-compartmental PK analysis using Phoenix WinNonlin 8.1, Pharsight Inc., Mountain View, CA, USA. Calculation of the area under the plasma concentration-time curve (AUC) was based on the “linear up log down” method, and uniform weighting was used for estimation of the terminal rate constant (λz). S.c. bioavailability (F) was calculated as the dose-normalized AUC (AUC/dose) after s.c. administration divided by the AUC/dose after i.v. administration. […]"}, "[2]": {"assay": "Accelerated chemical stability (RP-UPLC recovery and LCMS degradation pattern, 37° C.)", "assay_type": "physicochemical", "parameters": "Isomers TZ / Isomers 2 W / Loss of 18 amu TZ / Loss of 18 amu 2 W / Fragments TZ / Fragments 2 W / Fragments 1 W / Fragments 3 W / Fragments 4 W / Fragments 5 W / Fragments 6 W / Others 1 W / Others 3 W / Others 4 W / Others 5 W / Others 6 W / Isomers 1 W / Isomers 3 W / Isomers 4 W / Isomers 5 W / Isomers 6 W / Loss of 18 amu 1 W / Loss of 18 amu 3 W / Loss of 18 amu 4 W / Loss of 18 amu 5 W / Loss of 18 amu 6 W: unit not given here", "conditions": "LCMS, 5 mM sodium acetate, 250 mM glycerol, pH 4", "experimental": "In order to determine the chemical stability of CNP compounds in formulation, samples of CNP compounds in buffer were exposed to accelerated chemical degradation by heating. The stability of a given peptide was assessed by measuring recovery of intact peptide by quantification by RP-UPLC. To assess the chemical degradation pattern samples were also analysed by LC-MS.\nSample preparation: Samples for the 2 week study were prepared according to the principles described in Example 5.\nSamples for the 6 week study were prepared by dissolving lyophilized peptide in buffer (8 mM phosphate, 250 mM glycerol, pH 7.4) to a nominal peptide concentration of 5000 nmol/ml followed by pH adjustment with 0.1 N HCl to pH 6.5.\nIncubation: For the 2 week study a time-zero (TZ) sample was pulled and stored at −18° C. and the remaining volume was incubated at 37° C. Samples were pulled and stored at −18° C. after 2 weeks of incubation. Frozen samples were thawed, diluted to about 200 nmol/mL and the extent of chemical degradation was determined using LCMS as described.\nFor the 6 week study a time-zero (TZ) sample was pulled and stored at −18° C. and the remaining volume was incubated at 37° C. Samples were pulled on a weekly basis and stored at −18° C. until the last sampling time point at 6 weeks. Frozen samples were thawed, diluted to about 200 nmol/mL and the extent of chemical degradation was determined using RP-UPLC and LCMS as described.\nAnalysis of peptide recovery by RP-UPLC: The RP-UPLC method was performed on a Waters ACQUITY H-CLASS UPLC system fitted with a PDA detector. Separation was carried out on an ACQUITY UPLC BEH C8 Column (130 Å, 1.7 μm, 2.1 mm×150 mm) operating at a column temperature of 50° C. with eluent A (19.59 mM NH4H2PO4 41.71 mM (NH4)2HPO4, pH 6.5 and MeCN 9:1 v:v) and eluent B (80% MeCN in water). UV-detection was carried out at 214 nm. The analysis was performed by injection of 3 μL of sample onto the column which was eluted with a 1-step linear gradient of eluents A and B from 27 to 30% B over 20 minutes followed by a wash at 95% B over 2 minutes followed by a re-equilibration phase for 7 minutes at a constant flow rate of 0.3 mL/min. This yielded an analysis time of 30 minutes per sample. The area of the peak corresponding to intact CNP compound was given on a percentage scale relative to the total peptide peak area.\nAnalysis of chemical degradation patterns by LCMS: Samples were analysed on a […] UPLC from Thermo Scientific, using a Waters Acquity C18 reversed-phase column, 300 Å, […] particles 1 mm×150 mm. The compounds were separated by a linear gradient of solvent B from 5% to 55% over 48 minutes, using solvent A: water, 0.1% formic acid with 0.02% TFA and solvent B: acetonitrile, 0.1% formic acid with 0.02% TFA. Mass spectra were acquired by a Q Exactive Plus hybrid Quadrupole-Orbitrap mass spectrometer, BioPharma option (Thermo Scientific) interfaced with H-ESI II ion source. Data acquisitions were performed with a m/z 500 to 2000 scan range and a resolution of 30000.\nThe data list was aggregated into a summed table of the compounds. The table headers were defined as follows: […]\nResults: The results from LCMS analysis of a 2 week accelerated degradation study on several CNP compounds of the present invention are summarised in Table 12. The results from RP-UPLC and LCMS analysis of a 6 week accelerated degradation study on CNP compound 9482 (Chem. 137) is summarised in Table 13 and Table 14 respectively."}, "neprilysin (NEP)": {"biological_target": "neprilysin (NEP) (Homo sapiens, UniProt P08473)", "sequence (P08473 whole entry)": "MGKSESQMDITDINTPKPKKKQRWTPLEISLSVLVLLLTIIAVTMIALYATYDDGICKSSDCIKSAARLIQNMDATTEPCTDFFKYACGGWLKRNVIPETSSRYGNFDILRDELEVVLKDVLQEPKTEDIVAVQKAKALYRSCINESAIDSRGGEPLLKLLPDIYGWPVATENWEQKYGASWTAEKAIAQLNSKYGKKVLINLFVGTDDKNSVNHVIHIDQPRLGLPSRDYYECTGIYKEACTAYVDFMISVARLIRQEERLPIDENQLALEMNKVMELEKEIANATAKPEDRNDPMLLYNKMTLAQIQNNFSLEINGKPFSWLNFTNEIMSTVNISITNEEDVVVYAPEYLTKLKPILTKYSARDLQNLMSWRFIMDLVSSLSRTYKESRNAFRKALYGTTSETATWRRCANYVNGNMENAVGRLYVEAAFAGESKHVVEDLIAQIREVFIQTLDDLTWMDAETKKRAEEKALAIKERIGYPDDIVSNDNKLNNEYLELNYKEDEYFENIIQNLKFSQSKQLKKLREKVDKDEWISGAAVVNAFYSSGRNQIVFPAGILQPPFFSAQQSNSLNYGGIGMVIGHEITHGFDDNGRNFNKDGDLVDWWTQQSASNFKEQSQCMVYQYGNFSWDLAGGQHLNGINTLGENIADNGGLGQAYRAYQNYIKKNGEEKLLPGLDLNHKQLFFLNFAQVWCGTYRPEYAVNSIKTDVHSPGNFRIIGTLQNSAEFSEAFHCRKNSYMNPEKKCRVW", "assay": "In vitro neprilysin stability", "conditions": "recombinant human neprilysin (rhNEP), pH 7.4"}}, "note": "Starred links: 1 amine or outer side, 2 acyl side, 3 side chain; linkers in the order of their positions; H or OH if unused. Positions of bridges follow the written chain, without caps; N, C: chain ends. Residues, ends and D or L forms follow the SMILES beside them. *: point of attachment. C18 diacid = O=C(O)CCCCCCCCCCCCCCCCC(=O)*; γGlu = O=C(O)[C@H](CCC(=O)[*:2])N[*:1]", "data": [{"smiles": "CC[C@H](C)[C@@H]1NC(=O)[C@H](CCCNC(=N)N)NC(=O)[C@H](CCC(=O)O)NC(=O)[C@H](CC(C)C)NC(=O)[C@@H]2CCCN2C(=O)[C@H](CC(C)C)NC(=O)CNC(=O)[C@H](Cc2ccccc2)NC(=O)[C@@H](NC(=O)CNC(=O)[C@H](CO)NC(=O)[C@H](CO)NC(=O)[C@H](CC(C)C)NC(=O)CNC(=O)[C@H](CCCCN)NC(=O)[C@H](CCCCN)NC(=O)[C@H](CCC(N)=O)NC(=O)[C@H](C)NC(=O)CNC(=O)[C@H](CCCCN)NC(=O)[C@H](Cc2ccc(O)cc2)NC(=O)[C@H](CCCCN)NC(=O)[C@H](CCCNC(=N)N)NC(=O)[C@H](C)NC(=O)[C@H](CCC(N)=O)NC(=O)[C@@H]2CCCN2C(=O)[C@H](Cc2c[nH]cn2)NC(=O)[C@H](CCC(=O)O)NC(=O)[C@H](CCC(N)=O)NC(=O)CC[C@H](NC(=O)CC[C@H](NC(=O)CC[C@H](NC(=O)CC[C@H](NC(=O)CCCCCCCCCCCCCCCCC(=O)O)C(=O)O)C(=O)O)C(=O)O)C(=O)O)CSSC[C@@H](C(=O)O)NC(=O)CNC(=O)[C@H](CC(C)C)NC(=O)CNC(=O)[C@H](CO)NC(=O)[C@H](CC(C)C)NC(=O)[C@H](CO)NC(=O)CNC1=O", "note": "[Compound 9483] ({C18 diacid-γGlu-γGlu-γGlu-γGlu}-QEHPQARKYKGAQKKGLSSGCFGLPLERIGSLSGLGC-OH; disulfide 21-37)", "values": [{"measurement": "clearance", "setting": "[1]; iv", "value": 1.04, "unit": "mL/h/kg"}, {"measurement": "half-life", "setting": "[1]; iv", "value": 88, "unit": "h"}, {"measurement": "bioavailability", "setting": "[1]; sc", "value": 44, "unit": "%"}, {"measurement": "half-life", "setting": "[1]; sc", "value": 75, "unit": "h"}, {"measurement": "Fragments 2 W", "setting": "[2]; 2 weeks at 37° C.", "value": 0}, {"measurement": "Isomers 2 W", "setting": "[2]; 2 weeks at 37° C.", "value": 0}, {"measurement": "Loss of 18 amu 2 W", "setting": "[2]; 2 weeks at 37° C.", "value": 0}, {"measurement": "Others 2 W", "setting": "[2]; 2 weeks at 37° C.", "value": 0.6, "unit": "%"}, {"measurement": "Fragments TZ", "setting": "[2]; time zero", "value": 0}, {"measurement": "Isomers TZ", "setting": "[2]; time zero", "value": 0}, {"measurement": "Loss of 18 amu TZ", "setting": "[2]; time zero", "value": 0}, {"measurement": "Others TZ", "setting": "[2]; time zero", "value": 0.2, "unit": "%"}, {"measurement": "remaining at 1.5 h, 1000 nM", "setting": "neprilysin (NEP)", "value": 106, "unit": "%"}]}]}
